Assay results: the NIST ThermoML archive (doi:10.1021/acs.jced.6b00232)

Test: mn = molality of the nth substance listed, in mol/kg
Settings: 84.5 kPa, Liquid; for speed of sound: Frequency=3 MHz, Sing-around technique in a fixed-path interferometer; for mass density: Vibrating tube method

OC[C@H]1O[C@@](CO)(O[C@H]2O[C@H](CO)[C@@H](O)[C@H](O)[C@H]2O)[C@@H](O)[C@@H]1O [D-sucrose] + O
Settings	mass density, 288.15 K [kg/m3]	mass density, 293.15 K [kg/m3]	mass density, 298.15 K [kg/m3]	mass density, 303.15 K [kg/m3]	mass density, 308.15 K [kg/m3]	speed of sound, 288.15 K [m/s]	speed of sound, 293.15 K [m/s]	speed of sound, 298.15 K [m/s]	speed of sound, 303.15 K [m/s]	speed of sound, 308.15 K [m/s]
m1 = 0.09036	1010.86	1009.89	1008.67	1007.22	1005.55	1475.4	1491.1	1504.9	1516.9	1527.3
m1 = 0.1217	1014.83	1013.84	1012.59	1011.12	1009.43	1478.5	1494	1507.7	1519.6	1529.8
m1 = 0.1537	1018.82	1017.8	1016.53	1015.04	1013.34	1481.6	1497	1510.6	1522.3	1532.5
m1 = 0.2538	1030.98	1029.88	1028.55	1027	1025.25	1491.5	1506.4	1519.5	1530.9	1540.7
m1 = 0.3245	1039.25	1038.1	1036.73	1035.14	1033.35	1498.3	1513	1525.8	1537	1546.5
m1 = 0.5156	1060.41	1059.13	1057.64	1055.96	1054.09	1516.8	1530.7	1542.8	1553.2	1562
m1 = 0.729	1082.25	1080.85	1079.25	1077.46	1075.5	1537.3	1550.2	1561.5	1571.1	1579.2
m1 = 0.9736	1105.1	1103.56	1101.84	1099.96	1097.9	1559.9	1571.9	1582.2	1591	1598.4
m1 = 1.252	1128.74	1127.07	1125.24	1123.25	1121.11	1585.2	1596.1	1605.4	1613.3	1619.7
m1 = 1.573	1153.12	1151.33	1149.38	1147.28	1145.06	1613	1622.7	1630.9	1637.7	1643.2
m1 = 1.948	1178.48	1176.55	1174.48	1172.29	1169.98	1643.8	1652.1	1659.1	1664.8	1669.3

O=C[C@H](O)[C@@H](O)[C@H](O)[C@H](O)CO [D-glucose] + O
Settings	mass density, 288.15 K [kg/m3]	mass density, 293.15 K [kg/m3]	mass density, 298.15 K [kg/m3]	mass density, 303.15 K [kg/m3]	mass density, 308.15 K [kg/m3]	speed of sound, 288.15 K [m/s]	speed of sound, 293.15 K [m/s]	speed of sound, 298.15 K [m/s]	speed of sound, 303.15 K [m/s]	speed of sound, 308.15 K [m/s]
m1 = 0.2921	1018.67	1017.62	1016.34	1014.83	1013.12	–	1501	1514.3	1526	1535.9
m1 = 0.4836	1030.78	1029.64	1028.28	1026.7	1024.93	1498.4	1513	1525.9	1537.1	1546.6
m1 = 0.6164	1038.85	1037.66	1036.24	1034.62	1032.81	1507	1521.3	1533.9	1544.7	1554
m1 = 0.9795	1059.74	1058.4	1056.86	1055.12	1053.22	1530.3	–	1555.2	1565.2	1573.6
m1 = 1.388	1081.24	1079.76	1078.09	1076.24	1074.24	1555.6	1567.8	1578.4	1587.4	1595
m1 = 1.85	1103.58	1101.95	1100.14	1098.18	1096.07	1583.6	1594.7	1604.2	1612.2	1618.8
m1 = 2.379	1126.54	1124.77	1122.85	1120.79	1118.58	1613.6	1623.3	1631.7	1638.6	1644.3
m1 = 2.989	1150.24	1148.34	1146.3	1144.14	1141.85	1646	1654.4	1661.4	1667.2	1671.8
m1 = 3.7	1174.74	1172.71	1170.56	1168.3	1165.92	1681.2	1688	1693.8	1698.3	1701.8

O=C(CO)[C@@H](O)[C@H](O)[C@H](O)CO [D-fructose] + O
Settings	mass density, 288.15 K [kg/m3]	mass density, 293.15 K [kg/m3]	mass density, 298.15 K [kg/m3]	mass density, 303.15 K [kg/m3]	mass density, 308.15 K [kg/m3]	speed of sound, 288.15 K [m/s]	speed of sound, 293.15 K [m/s]	speed of sound, 298.15 K [m/s]	speed of sound, 303.15 K [m/s]	speed of sound, 308.15 K [m/s]
m1 = 0.1716	–	–	1008.73	–	–	1478.9	1494.4	1508	1519.8	1529.9
m1 = 0.2312	1015.03	1013.99	1012.69	–	1009.43	1483.2	1498.5	1511.8	–	1533.4
m1 = 0.292	1019.08	1018	1016.66	1015.1	1013.34	1487.5	–	1515.7	1527.1	1536.9
m1 = 0.4825	1031.39	1030.21	1028.76	1027.1	1025.25	1500.9	1515.3	–	–	1547.8
m1 = 0.6161	1039.7	1038.45	1036.93	1035.21	1033.29	1510.2	1524.1	1536.2	1546.5	1555.3
m1 = 0.9787	1061.06	1059.67	1057.92	1056.02	1053.95	1534.7	1547.5	1558.4	1567.7	1575.5
m1 = 1.386	1083.13	1081.5	1079.62	1077.55	1075.32	1561.6	1572.9	1582.5	1590.7	1597.3
m1 = 1.851	1106.02	1104.26	1102.2	1099.94	1097.55	1588.9	1599.1	1607.5	1614.3	1619.9
m1 = 2.379	1129.63	1127.76	1125.52	1123.09	1120.53	1622.1	1630.8	1637.6	1643	1647.2
m1 = 2.981	1153.68	1151.66	1149.24	1146.65	1143.92	1655.5	1662.7	1668	1671.9	1674.7
m1 = 3.667	1178.12	1175.94	1173.34	1170.58	1167.69	1691	1696.5	1700.1	1702.5	1703.9
